A short description of the data set: Solubility of the Mesylate in water (aliquot addition until the powder dissolved). The format is physicochemical. From the text: The visual solubility was confirmed by an HPLC assay of a saturated solution.

Our source for the Solubility values is patent publication US7291740B2, “5-[4-[2-(N-methyl-N-(2-pyridyl)amino)ethoxy]benzyl]thiazolidine-2,4-dione Mesylate salt” (SmithKline Beecham p.l.c., priority 2000, dated 2007).

Where two headings read alike, the source gives them in different places.

Where the note is “water, visual dissolution (Form IV confirmed by HPLC assay of a saturated solution)”, `CN(CCOc1ccc(CC2SC(=O)NC2=O)cc1)c1ccccn1.CS(=O)(=O)O` (stereo not shown) [Example 1, 5-[4-[2-(N-methyl-N-(2-pyridyl)amino)ethoxy]benzyl]thiazolidine-2,4-dione methanesulfonate Form I] gave a Solubility of more than 100 mg/mL.

Regarding `CN(CCOc1ccc(CC2SC(=O)NC2=O)cc1)c1ccccn1.CS(=O)(=O)O` (stereo not shown) [Example 11, 5-[4-[2-(N-methyl-N-(2-pyridyl)amino)ethoxy]benzyl]thiazolidine-2,4-dione methanesulfonate Form IV], the Solubility was more than 100 mg/mL.

Turning to `CN(CCOc1ccc(CC2SC(=O)NC2=O)cc1)c1ccccn1.CS(=O)(=O)O` (stereo not shown) [Example 3, 5-[4-[2-(N-methyl-N-(2-pyridyl)amino)ethoxy]benzyl]thiazolidine-2,4-dione methanesulfonate Form II], the Solubility was more than 100 mg/mL.

In turn, `CN(CCOc1ccc(CC2SC(=O)NC2=O)cc1)c1ccccn1.CS(=O)(=O)O` (stereo not shown) [Example 4, 5-[4-[2-(N-methyl-N-(2-pyridyl)amino)ethoxy]benzyl]thiazolidine-2,4-dione methanesulfonate Form III] displayed a Solubility of more than 100 mg/mL.

Broadly, the Solubility is how much of the substance goes into solution per volume. Read a low Solubility as a poorly soluble substance.
